Experimental data as given in ChEMBL document CHEMBL4020836, “Discovery of 7-Oxo-2,4,5,7-tetrahydro-6 H-pyrazolo[3,4- c]pyridine Derivatives as Potent, Orally Available, and Brain-Penetrating Receptor Interacting Protein 1 (RIP1) Kinase Inhibitors: Analysis of Structure-Kinetic Relationships” (J Med Chem, 2018).

Assays:
[1] = Metabolic stability in human liver microsomes; format: ADME, microsome; settings: read-out: Stability
[2] = Metabolic stability in mouse liver microsomes; format: ADME, microsome; settings: read-out: Stability

microsomal CLint [1]	microsomal CLint [2]	Structure (SMILES)
101 µL/min/mg	100 µL/min/mg	CN1C(=O)[C@@H](N2CCc3c(nn(Cc4ccccc4)c3Cl)C2=O)COc2ccccc21
13 µL/min/mg	< 1 µL/min/mg	CNC(=O)c1ccc2c(c1)OC[C@H](N1CCc3c(nn(Cc4ccccc4)c3Cl)C1=O)C(=O)N2C
